Series [1] deals with Cotton Aphid (Aphis gossypi). Description: Cotton aphid spray test on infested cotton plants. It is filed as in vivo. The note with it: 120 h, after 5 days, in comparison with untreated controls. An excerpt: B.1 Cotton Aphid (Aphis gossypi)
The active compounds were formulated in cyclohexanone as a 10,000 ppm solution supplied in tubes. The tubes were inserted into an automated electrostatic sprayer equipped with an atomizing nozzle and they served as stock solutions for which lower dilutions were made in 50% acetone: 50% water (v/v). A nonionic surfactant (Kinetic®) was included in the solution at a volume of 0.01% (v/v).
Cotton plants at the cotyledon stage were infested with aphids prior to treatment by placing a heavily infested leaf from the main aphid colony on top of each cotyledon. Aphids were allowed to transfer overnight to accomplish an infestation of 80-100 aphids per plant and the host leaf was removed. The infested plants were then sprayed by an automated electrostatic plant sprayer equipped with an atomizing spray nozzle. The plants were dried in the sprayer fume hood, removed from the sprayer, and then maintained in a growth room under fluorescent lighting in a 24-hr photoperiod at 25° C. and 20-40% relative humidity. Aphid mortality on the treated plants, relative to mortality on untreated control plants, was determined after 5 days.

The test system of series [2] is Cowpea Aphid (aphis craccivora). Description: Cowpea aphid spray test on potted cowpea plants. It is filed as in vivo. As to conditions: assessed after 24, 72 and 120 hours, in comparison with untreated controls. The procedure:
(§1) If not otherwise specified the test solutions are prepared as follow:
(§2) The active compound is dissolved at the desired concentration in a mixture of 1:1 (vol:vol) distilled water:acteon. The test solution is prepared at the day of use and in general at concentrations of […].
B.2 Cowpea Aphid (aphis craccivora)
Potted cowpea plants colonized with approximately 100-150 aphids of various stages were sprayed after the pest population has been recorded. Population reduction was assessed after 24, 72, and 120 hours.

Series [3] deals with Silverleaf Whitefly (Bemisia argentifolii). Nature of the series: Silverleaf whitefly test on sprayed cotton plants. It is filed as in vivo. As to conditions: 72 h, spray, 3 days after treatment, in comparison with untreated controls. An excerpt:
B.5 Silverleaf Whitefly (Bemisia argentifolii)
The active compounds were formulated in cyclohexanone as a 10,000 ppm solution supplied in tubes. The tubes were inserted into an automated electrostatic sprayer equipped with an atomizing nozzle and they served as stock solutions for which lower dilutions were made in 50% acetone:50% water (v/v). A nonionic surfactant (Kinetic( ) was included in the solution at a volume of 0.01% (v/v).
Cotton plants at the cotyledon stage (one plant per pot) were sprayed by an automated electrostatic plant sprayer equipped with an atomizing spray nozzle. The plants were dried in the sprayer fume hood and then removed from the sprayer. Each pot was placed into a plastic cup and about 10 to 12 whitefly adults (approximately 3-5 days old) were introduced. The insects were collected using an aspirator and a nontoxic Tygon® tubing connected to a barrier pipette tip. The tip, containing the collected insects, was then gently inserted into the soil containing the treated plant, allowing insects to crawl out of the tip to reach the foliage for feeding. Cups were covered with a reusable screened lid. […] Mortality was assessed 3 days after treatment, compared to untreated control plants.

Series [4] relates to Vetch Aphid (Megoura viciae). Nature of the series: Vetch aphid leaf disk microtiter plate test. It is filed as in vivo. The note with it: foliar, 120 h, leaf disks sprayed, 5 days, in comparison with untreated controls. Here is the method:
B.7 Vetch Aphid (Megoura viciae)
For evaluating control of vetch aphid (Megoura viciae) through contact or systemic means the test unit consisted of 24-well-microtiter plates containing broad bean leaf disks.
The compounds were formulated using a solution containing 75% v/v water and 25% v/v DMSO. Different concentrations of formulated compounds were sprayed onto the leaf disks at 2.5 μl, using a custom built micro atomizer, at two replications.
After application, the leaf disks were air-dried and 5-8 adult aphids placed on the leaf disks inside the microtiter plate wells. The aphids were then allowed to suck on the treated leaf disks and incubated at about 23±1° C. and about 50±5% relative humidity for 5 days. Aphid mortality and fecundity was then visually assessed.

The test system of series [5] is Green Peach Aphid (Myzus persicae). Description: Green peach aphid spray test on bell pepper plants. It is filed as in vivo. The note with it: 120 h, after 5 days, in comparison with untreated controls. An excerpt:
B.8 Green Peach Aphid (Myzus persicae)
The active compounds are formulated in cyclohexanone as a 10,000 ppm solution supplied in tubes. The tubes are inserted into an automated electrostatic sprayer equipped with an atomizing nozzle and they served as stock solutions for which lower dilutions are made in 50% acetone: 50% water (v/v). A nonionic surfactant (Kinetic®) is included in the solution at a volume of 0.01% (v/v).
Bell pepper plants at the first true-leaf stage are infested prior to treatment by placing heavily infested leaves from the main colony on top of the treatment plants. Aphids are allowed to transfer overnight to accomplish an infestation of 30-50 aphids per plant and the host leaves are removed. The infested plants are then sprayed by an automated electrostatic plant sprayer equipped with an atomizing spray nozzle. The plants are dried in the sprayer fume hood, removed, and then maintained in a growth room under fluorescent lighting in a 24-hr photoperiod at about 25° C. and about 20-40% relative humidity. Aphid mortality on the treated plants, relative to mortality on untreated control plants, is determined after 5 days.

For series [6], the system named is Rice Green Leafhopper (Nephotettix virescens). Description: Rice green leafhopper test on sprayed rice seedlings. The note with it: spray, after 72 hours, in comparison with untreated controls. It is filed as in vivo. Here is the method:
B.9 Rice Green Leafhopper (Nephotettix virescens)
Rice seedlings are cleaned and washed 24 hours before spraying. The active compounds are formulated in 50:50 acetone:water (vol:vol), and 0.1% vol/vol surfactant (EL 620) is added. Potted rice seedlings are sprayed with 5 ml test solution, air dried, placed in cages and inoculated with 10 adults. Treated rice plants are kept at about 28-29° C. and relative humidity of about 50-60%. Percent mortality is recorded after 72 hours.

Series [7] has as its system antibodies against lysergic acid-bovine serum albumin conjugates. As to conditions: antibodies raised in rabbits against lysergic acid conjugates; Arens et al, Planta Medica (1980); cited from earlier work.
In series [8] the test system is yellowfever mosquito larvae (Aedes aegypti). Nature of the series: Larval mosquito water treatment assay. The note with it: 120 h.
For series [9], the system named is Diamond Back Moth (plutella xylostella). Description: Diamond back moth leaf-dip test on Chinese cabbage. It is filed as in vivo. As to conditions: 300 ppm, recorded 24, 72 and 120 hours after treatment, in comparison with untreated controls. Here is the method: as §1, §2
B.3 Diamond Back Moth (plutella xylostella)
Leaves of Chinese cabbage were dipped in test solution and air-dried. Treated leaves were placed in petri dished lined with moist filter paper. Mortality was recorded 24, 72, and 120 hours after treatment.

The subject of series [10] is Orchid Thrips (dichromothrips corbetti). Nature of the series: Orchid thrips floral-immersion test. It is filed as in vivo. The note with it: 300 ppm, after 4 days, in comparison with untreated controls. The procedure:
B.4 Orchid Thrips (dichromothrips corbetti)
Dichromothrips corbetti adults used for bioassay are obtained from a colony maintained continuously under laboratory conditions. For testing purposes, the test compound is diluted to a concentration of 300 ppm (wt compound: vol diluent) in a 1:1 mixture of acetone:water (vol:vol), plus 0.01% vol/vol Kinetic® surfactant.
Thrips potency of each compound is evaluated by using a floral-immersion technique. Plastic petri dishes are used as test arenas. All petals of individual, intact orchid flowers are dipped into treatment solution and allowed to dry. Treated flowers are placed into individual petri dishes along with 10-15 adult thrips. The petri dishes are then covered with lids. All test arenas are held under continuous light and a temperature of about 28° C. for duration of the assay. After 4 days, the numbers of live thrips are counted on each flower, and along inner walls of each petri dish. The level of thrips mortality is extrapolated from pre-treatment thrips numbers.

In series [11] the test system is Red spider Mite (Tetranychus kanzawai). Nature of the series: Red spider mite test on sprayed cowpea beans. It is filed as in vivo. The note with it: 300 ppm, spray, after 72 h, in comparison with untreated controls. The procedure: B.6 Red spider Mite (Tetranychus kanzawai)
The active compound was dissolved at the desired concentration in a mixture of 1:1 (v/v) distilled water:acetone. A surfactant (Alkamuls® EL 620) was added at the rate of 0.1% (v/v).
Potted cowpea beans of 7-10 days of age were cleaned with tap water and sprayed with 5 ml of the test solution using air driven hand atomizer. The treated plants were allowed to air dry and afterwards inculated with 20 or more mites by clipping a cassava leaf section with known mite population. Treated plants were placed inside a holding room at about 25-27° C. and about 50-60% relatice humidity.
ortality by counting the live mites 72 HAT. Percent mortality was assessed after 72 h.

Series [12] deals with Striped Flea Beetle (Phylotretta striolata). Nature of the series: Striped flea beetle leaf-dip test on Chinese cabbage. It is filed as in vivo. As to conditions: 300 ppm, 72 hours after treatment, in comparison with untreated controls. Here is the method:
B.10 Striped Flea Beetle (Phylotretta striolata)
The active compound is dissolved at the desired concentration in a mixture of 1:1 (vol:vol) distilled water:acetone. Add surfactant (Alkamuls® EL620) at the rate of 0.1% (vol/vol). The test solution is prepared at the day of use.
Leaves of Chinese cabbage were dipped in test solution and air-dried. Treated leaves were placed in pertri dishes lined with moist filter paper and inoculated with 20 adults. Mortality was recorded 72 hours after treatment. Feeding damage were also recorded using scale of 0-100%.

For orientation: mortality means the percentage killed. A higher mortality goes with a strong lethal effect. For the molecule `CN1CC2(C)CC23c2cccc4[nH]cc(c24)CC13` (stereo not drawn) [compound 1-1, cycloclavin], the mortality at 300 ppm in [1], in series [2], in [3], in [5] and in [6] was at least 75% throughout. Besides, the mortality at 2500 ppm in [4] is at least 75%. Further, in [7], the cross reaction activity result is listed as “did not show cross reaction activity”. This molecule also showed a mortality at 10 ppm in [8] of at least 60%.

Take “N-methylcarbamoyl-(1aR,3aR,9bR)-1a,2,3,3a,4,6-hexahydro-1a,3-dimethyl-1H-cycloprop[c]indolo[4,3-ef]indole [compound 1-2]”: the mortality result in series [9], in [10], in series [11] and in [12] was “at least 75%” throughout.

The values above are taken from patent US20150335021A1, “Cycloclavine and Derivatives Thereof for Controlling Invertebrate Pests” (BASF SE, priority 2012, published 2015).
